# Molecular target: T1, CYP11A1 (Homo sapiens, UniProt P05108)
# T1 construct: recombinant WT human CYP11A1, pET-28a(+), C-terminal His6, coexpressed with GroEL/ES in E. coli, purified; MST
# T1 sequence (P05108 40-521): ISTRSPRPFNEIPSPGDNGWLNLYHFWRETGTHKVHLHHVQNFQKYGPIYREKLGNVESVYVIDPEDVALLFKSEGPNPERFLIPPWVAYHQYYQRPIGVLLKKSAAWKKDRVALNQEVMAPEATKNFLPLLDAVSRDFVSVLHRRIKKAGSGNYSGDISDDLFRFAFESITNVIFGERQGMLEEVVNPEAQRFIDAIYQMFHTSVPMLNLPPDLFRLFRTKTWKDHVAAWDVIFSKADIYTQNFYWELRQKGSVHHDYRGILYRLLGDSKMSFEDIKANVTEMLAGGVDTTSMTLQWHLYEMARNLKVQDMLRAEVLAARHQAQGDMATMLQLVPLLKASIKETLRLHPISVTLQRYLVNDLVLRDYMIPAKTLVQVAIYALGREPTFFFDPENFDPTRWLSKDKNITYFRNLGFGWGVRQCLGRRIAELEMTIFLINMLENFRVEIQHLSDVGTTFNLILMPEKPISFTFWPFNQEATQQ
# Test: MST with purified protein; in-gel competition with Tet probe; CO difference spectra; cell activity IC50 […]
# Type: binding
compound,measurement,value
"COc1ccc2cc1Oc1ccc(cc1)C[C@H]1c3cc(c(OC)cc3CCN1C)Oc1c(OC)c(OC)cc3c1[C@H](C2)N(C)CC3 [Tet, Tetrandrine]",Kd,12.5 µM

# From PMC11211567, “Tetrandrine inhibits aldosterone synthesis by covalently targeting CYP11A1 to attenuate hypertension” (Frontiers in Pharmacology, 2024)
